Reference: publication PMC7675038, “A Single‐Stranded DNA‐Encoded Chemical Library Based on a Stereoisomeric Scaffold Enables Ligand Discovery by Modular Assembly of Building Blocks” (Advanced Science, 2020)

Target: T1, HSA, human serum albumin (Homo sapiens, UniProt P02768)
T1 construct: gene ALB
Test: fluorescence polarization, off-DNA
Type: binding

T1 sequence (P02768 25-609): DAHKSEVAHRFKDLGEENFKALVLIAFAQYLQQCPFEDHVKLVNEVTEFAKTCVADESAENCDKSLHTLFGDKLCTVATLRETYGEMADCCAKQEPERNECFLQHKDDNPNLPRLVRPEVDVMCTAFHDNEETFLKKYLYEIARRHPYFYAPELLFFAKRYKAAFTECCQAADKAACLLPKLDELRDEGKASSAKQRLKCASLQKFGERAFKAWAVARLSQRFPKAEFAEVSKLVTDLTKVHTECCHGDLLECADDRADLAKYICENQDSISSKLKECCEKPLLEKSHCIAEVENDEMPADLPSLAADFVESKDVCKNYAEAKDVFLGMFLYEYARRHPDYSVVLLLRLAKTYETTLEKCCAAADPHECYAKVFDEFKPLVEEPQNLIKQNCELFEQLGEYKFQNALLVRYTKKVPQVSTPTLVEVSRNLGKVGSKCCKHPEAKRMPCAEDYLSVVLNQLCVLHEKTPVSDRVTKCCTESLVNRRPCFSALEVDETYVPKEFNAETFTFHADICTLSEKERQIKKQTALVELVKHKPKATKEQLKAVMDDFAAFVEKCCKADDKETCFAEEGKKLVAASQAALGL

Kd [µM] | Compound
5 ± 3 | Cc1ccc(C(=O)NCC(=O)N[C@@H](CCC(=O)N[C@@H](CCC(N)=O)C(=O)O)C(=O)N2CCc3nc(-c4ccccc4)ncc3C2)cc1 [compound 17, 17]
11 ± 2 | Cc1ccc(C(=O)NCC(=O)N[C@H](CCC(=O)N[C@@H](CCC(N)=O)C(=O)O)C(=O)N2CCc3nc(-c4ccccc4)ncc3C2)cc1 [compound 16, 16]
